# Structures can show the parent of a compound that is named as a salt.
# Experiments:
# DU145 cells = assay: In vitro cell inhibition assay - DU145 cell proliferation (CellTiter-Glo); format: cell-based
# Protocol: 5. In Vitro Cell Inhibition Assay—DU145 Cell Proliferation
# The inhibitory effect of the compounds on cell proliferation was assessed by detecting the number of viable cells using the CellTiter-Glo® reagent. DU145 cells in the logarithmic growth phase were collected and inoculated into transparent bottom 96-well plates at a density 1×10^3 cells per well with 100 μL medium, and incubated at 37° C., 5% CO2 overnight. The compounds were sequentially diluted in a 5-fold concentration gradient with DMSO to obtain 8 different concentrations. These were then diluted with RPMI-640 (containing 10% FBS) cell culture medium to obtain the compound working solution (2×), which was added to the cell supernatant at 100 μL per well. The incubation continued for 6 days at 37° C., 5% CO2. The plate was then removed and equilibrated at room temperature (25° C.) along with the CellTiter-Glo® mixing reagent for 10-30 minutes. After centrifugation, 120 μL of the culture medium was carefully aspirated from each well, and 60 μL of CellTiter-Glo® reagent was added. The cells were thoroughly mixed with the CellTiter-Glo® mixing reagent using a microplate shaker for 2 min. and then incubated at room temperature for 10 min. The 96-well plate was subsequently placed on a multifunctional microplate reader to record the Luminescence values (RLU).
# (§1) The inhibition rate was calculated using the following formula: […]
# (§2) Note: ‘Negative’ refers to the group without inhibitors; ‘Blank’ refers to the group without cells.
# (§3) The IC50 value was determined by fitting the inhibition rate by GraphPad Prism software.
# NCI-H1417 cells = assay: In vitro cell inhibition assay - H1417 cell proliferation (CellTiter-Glo); format: cell-based
# Procedure, shortened: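 Cells exposed to 8 compound concentrations (5-fold dilutions) in BEGM with 10% FBS for 7 days at 37° C., 5% CO2. Viable cells measured by CellTiter-Glo luminescence; inhibition versus no-inhibitor and no-cell controls, IC50 fitted.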
# NCI-H69 cells = assay: In vitro cell inhibition assay - NCI-H69 cell proliferation (CellTiter-Glo); format: cell-based
# Procedure, shortened: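 7-day exposure at 37° C., 5% CO2 to compounds serially diluted 5-fold (8 concentrations) in RPMI-640 containing 20% FBS, after overnight attachment at 1×10^3 cells/well. Read-out: CellTiter-Glo luminescence (RLU); IC50 from curve fit of inhibition rate.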
# LSD1 = LSD1 (Homo sapiens (Human), UniProt O60341); assay: In vitro enzyme inhibition assay - LSD1 (HTRF); format: biochemical
# NCI-H526 cells = assay: In vitro cell inhibition assay - NCI-H526 cell proliferation (CellTiter-Glo); format: cell-based; details: Homo sapiens, NCI-H526, 120 h, H526 small cell lung cancer cell proliferation, 5 days
# Protocol: 6. In Vitro Cell Inhibition Assay—NCI-H526 Cell Proliferation
# The inhibitory effect of the compounds on cell proliferation was assessed by detecting the number of viable cells using CellTiter-Glo® reagent. NCI-H526 cells in the logarithmic growth phase were collected and inoculated into transparent bottom 96-well plates at a density 1×10^3 cells per well with 100 μL of medium, and incubated at 37° C., 5% CO2 overnight. The compounds were sequentially diluted in a 5-fold concentration gradient with DMSO to obtain 8 different concentrations. These were then diluted with RPMI-640 (containing 10% FBS) cell culture medium to obtain the compound working solution (2×), which was added to the cell supernatant at 100 μL per well. The incubation continued for 5 days at 37° C., 5% CO2. The plate was then removed and equilibrated at room temperature (25° C.) along with the CellTiter-Glo® mixing reagent for 10-30 minutes; 80 μL of the culture medium was carefully aspirated from each well, and 80 μL of CellTiter-Glo® reagent was added. The cells were thoroughly mixed with the CellTiter-Glo® mixing reagent using a microplate shaker for 2 min. and then incubated at room temperature for 10 min. The 96-well plate was subsequently placed on a multifunctional microplate reader to record the Luminescence values (RLU).
# as §1, §2, §3
# pan-HDAC = assay: In vitro enzyme inhibition assay - HDAC (HDAC-Glo I/II), pan-HDAC; format: biochemical
# Procedure, shortened: (§4)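 Eight compound concentrations (5-fold steps from a 1 mM DMSO stock) tested against pan-HDAC, HDAC1 and HDAC8 with HDAC-Glo I/II reagents, luminescence read-out. Percent inhibition normalized to no-inhibitor and no-enzyme wells; IC50 derived by four-parameter logistic fit.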
# HDAC8 = HDAC8 (Homo sapiens (Human), UniProt Q9BY41); assay: In vitro enzyme inhibition assay - HDAC (HDAC-Glo I/II), HDAC8; format: biochemical; details: read-out: HDAC IC50 (nM) HDAC 8
# Chain of HDAC8 (Q9BY41 whole entry): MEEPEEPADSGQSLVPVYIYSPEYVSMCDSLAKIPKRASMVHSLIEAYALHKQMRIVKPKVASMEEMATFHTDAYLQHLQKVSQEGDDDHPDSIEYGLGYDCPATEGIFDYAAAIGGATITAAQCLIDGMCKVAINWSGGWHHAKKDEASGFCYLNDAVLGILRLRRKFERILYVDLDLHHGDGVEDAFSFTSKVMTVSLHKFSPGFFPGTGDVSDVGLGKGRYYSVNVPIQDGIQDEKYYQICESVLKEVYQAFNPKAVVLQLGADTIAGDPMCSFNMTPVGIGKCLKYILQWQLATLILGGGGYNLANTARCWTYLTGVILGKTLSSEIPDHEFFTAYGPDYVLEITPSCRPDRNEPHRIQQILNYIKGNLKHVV
# Procedure, shortened: as §4
# [1] = Homo sapiens, DU-145, Du145 prostate cancer cell proliferation
# [2] = Homo sapiens, NCI-H1417, H1417 small cell lung cancer cell proliferation
# [3] = Homo sapiens, NCI-H69, H69 small cell lung cancer cell proliferation
smiles,measurement,setting,value
"Cn1cc2cc(-c3c(OCCCCCCC(=O)NO)cc(N4CCC(N)CC4)nc3-c3ccc(C#N)c(F)c3)ccc2n1 [Example 14, 7-((6-(4-Aminopiperidin-1-yl)-2-(4-cyano-3-fluorophenyl)-3-(2-methyl-2H-indazol-5-yl)pyridin-4-yl)oxy)-N-hydroxyheptanamide formate]",IC50,DU145 cells; [1],3210 nM
same,IC50,NCI-H1417 cells; [2],> 1000 nM
same,IC50,NCI-H69 cells; [3],2520 nM
"COc1ccc(-c2cnc(N3CCC(NCc4ccc(C(=O)NO)cc4)CC3)c(C#N)c2-c2ccc(C#N)c(F)c2)cc1O [Example 41, 4-(((1-(3-Cyano-4-(4-cyano-3-fluorophenyl)-5-(3-hydroxy-4-methoxyphenyl)pyridin-2-yl)piperidin-4-yl)amino)methyl)-N-hydroxybenzamide hydrochloride]",IC50,LSD1,0.13 nM
same,IC50,DU145 cells; [1],5060 nM
same,IC50,NCI-H1417 cells; [2],1.29 nM
same,IC50,NCI-H69 cells; [3],1680 nM
"COc1cc(-c2cnc(N3CCC(NCc4ccc(/C=C/C(=O)NO)cc4)CC3)c(F)c2-c2ccc(C#N)c(F)c2)ccc1O [Example 77, (E)-3-(4-(((1-(4-(4-Cyano-3-fluorophenyl)-3-fluoro-5-(4-hydroxy-3-methoxyphenyl)pyridin-2-yl)piperidin-4-yl)amino)methyl)phenyl)-N-hydroxyacrylamide formate]",IC50,DU145 cells; [1],320 nM
same,IC50,NCI-H1417 cells; [2],661 nM
same,IC50,NCI-H69 cells; [3],121 nM
"COc1ccc(-c2cnc(N3CCC(Nc4ccc(/C=C/C(=O)NO)cc4)CC3)c(C#N)c2-c2ccc(C#N)c(F)c2)cc1O [Example 82, (E)-3-(4-((1-(3-Cyano-4-(4-cyano-3-fluorophenyl)-5-(3-hydroxy-4-methoxyphenyl)pyridin-2-yl)piperidin-4-yl)amino)phenyl)-N-hydroxyacrylamide formate]",IC50,DU145 cells; [1],352 nM
same,IC50,NCI-H1417 cells; [2],11.5 nM
same,IC50,NCI-H69 cells; [3],268 nM
"COc1ccc(-c2cnc(N3CCC(CCc4ccc(/C=C/C(=O)NO)cc4)CC3)c(C#N)c2-c2ccc(C#N)c(F)c2)cc1O [Example 89, (E)-3-(4-(2-(1-(3-cyano-4-(4-cyano-3-fluorophenyl)-5-(3-hydroxy-4-methoxyphenyl)pyridin-2-yl)piperidin-4-yl)ethyl)phenyl)-N-hydroxyacrylamide]",IC50,DU145 cells; [1],390 nM
same,IC50,NCI-H1417 cells; [2],> 1000 nM
same,IC50,NCI-H69 cells; [3],120 nM
"COc1cc(-c2cnc(N3CCC(NCC4CCN(c5ccc(C(=O)NO)cc5)CC4)CC3)c(C#N)c2-c2ccc(C#N)c(F)c2)ccc1O [Example 91, 4-(4-(1-(3-Cyano-4-(4-cyano-3-fluorophenyl)-5-(4-hydroxy-3-methoxyphenyl)pyridin-2-yl)piperidin-4-yl)amino)methyl) piperidin-1-yl)-N-hydroxybenzamide formate]",IC50,DU145 cells; [1],2630 nM
same,IC50,NCI-H1417 cells; [2],623 nM
same,IC50,NCI-H69 cells; [3],906 nM
"COc1cc(-c2cnc(N3CCC(NCCCc4ccc(C(=O)NO)cc4)CC3)c(C#N)c2-c2ccc(C#N)c(F)c2)ccc1O [Example 93, 4-(3-(3-Cyano-4-(4-cyano-3-fluorophenyl)-5-(4-hydroxy-3-methoxyphenyl)pyridin-2-yl)piperidin-4-yl)amino)propyl)-N-hydroxybenzamide formate]",IC50,DU145 cells; [1],2840 nM
same,IC50,NCI-H1417 cells; [2],343 nM
same,IC50,NCI-H69 cells; [3],1280 nM
"N#Cc1ccc(-c2c(-c3ccc(F)c(O)c3)cnc(N3CCC(NCc4ccc(/C=C/C(=O)NO)cc4)CC3)c2C#N)cc1F [Example 97, (E)-3-(4-((1-(3-Cyano-4-(4-cyano-3-fluorophenyl)-5-(4-fluoro-3-hydroxyphenyl)pyridin-2-yl)piperidin-4-yl)amino)methyl) phenyl)-N-hydroxyacrylamide formate]",IC50,LSD1,1.06 nM
same,IC50,DU145 cells; [1],21 nM
same,IC50,NCI-H1417 cells; [2],8.93 nM
same,IC50,NCI-H69 cells; [3],8.76 nM
"COc1ccc(-c2cnc(N3CCC(NCc4ccc(/C=C/C(=O)NO)cc4)CC3)c(C#N)c2-c2ccc(C#N)c(F)c2)c(O)c1O [Example 140, (E)-3-(4-(((1-(3-Cyano-4-(4-cyano-3-fluorophenyl)-5-(2,3-dihydroxy-4-methoxyphenyl)pyridin-2-yl)piperidin-4-yl)amino)methyl)phenyl)-N-hydroxyacrylamide formate]",IC50,LSD1,44.2 nM
same,IC50,DU145 cells; [1],5190 nM
same,IC50,NCI-H1417 cells; [2],220 nM
same,IC50,NCI-H69 cells; [3],405 nM
"Cn1nnc2cc(-c3cnc(N4CCC(NCc5ccc(/C=C/C(=O)NO)cc5)CC4)c(C#N)c3-c3ccc(C#N)c(F)c3)ccc21 [Example 141, (E)-3-(4-(((1-(3-Cyano-4-(4-cyano-3-fluorophenyl)-5-(1-methyl-1H-benzo[d][1,2,3]triazol-5-yl)pyridin-2-yl)piperidin-4-yl)amino)methyl)phenyl)-N-hydroxyacrylamide formate]",IC50,LSD1,1.72 nM
same,IC50,DU145 cells; [1],129 nM
same,IC50,NCI-H1417 cells; [2],31 nM
same,IC50,NCI-H69 cells; [3],95.8 nM
"COc1ccc(-c2cnc(N3CCC(NCc4ccc(/C=C/C(=O)NO)cc4)CC3)c(C(F)(F)F)c2-c2ccc(C#N)c(F)c2)cc1O [Example 147, (E)-3-(4-(4-(4-Cyano-3-fluorophenyl)-5-(3-hydroxy-4-methoxyphenyl)-3-(trifluoromethyl)pyridin-2-yl)piperidin-4-yl)amino)methyl) phenyl)-N-hydroxyacrylamide formate]",IC50,LSD1,153 nM
same,IC50,DU145 cells; Du145 prostate cancer cell proliferation,658 nM
same,IC50,NCI-H1417 cells; H1417 small cell lung cancer cell proliferation,255 nM
same,IC50,NCI-H69 cells; H69 small cell lung cancer cell proliferation,440 nM
"COc1ccc(-c2cnc(N3CCC(NCc4ccc(/C(C)=C/C(=O)NO)cc4)CC3)c(C#N)c2-c2ccc(C#N)c(F)c2)cc1O [Example 170, (E)-3-(4-(((1-(3-Cyano-4-(4-cyano-3-fluorophenyl)-5-(3-hydroxy-4-methoxyphenyl)pyridin-2-yl)piperidin-4-yl)amino)methyl)phenyl)-N-hydroxybut-2-enamide formate]",IC50,NCI-H526 cells,27.5 nM
same,IC50,pan-HDAC,2 nM
same,IC50,HDAC8,62.7 nM
same,IC50,LSD1,0.43 nM
same,IC50,NCI-H1417 cells; [2],1.28 nM
same,IC50,NCI-H69 cells; [3],27.6 nM
"COc1ccc(-c2cnc(N3CCC(NCc4ccc(/C=C(\F)C(=O)NO)cc4)CC3)c(C#N)c2-c2ccc(C#N)c(F)c2)cc1O [Example 171, (Z)-3-(4-(((1-(3-Cyano-4-(4-cyano-3-fluorophenyl)-5-(3-hydroxy-4-methoxyphenyl)pyridin-2-yl)piperidin-4-yl)amino)methyl)phenyl)-2-fluoro-N-hydroxyacrylamide formate]",IC50,NCI-H526 cells,12.3 nM
same,IC50,pan-HDAC,1.68 nM
same,IC50,HDAC8,53.1 nM
same,IC50,LSD1,0.55 nM
same,IC50,NCI-H1417 cells; [2],0.54 nM
same,IC50,NCI-H69 cells; [3],14.5 nM
"COc1ccc(-c2c(C#N)cc(N3CCC(NCc4ccc(/C=C/C(=O)NO)cc4)CC3)nc2-c2ccc(C#N)c(F)c2)cc1O [Example 176, (E)-3-(4-(((1-(4-cyano-6-(4-cyano-3-fluorophenyl)-5-(3-hydroxy-4-methoxyphenyl)pyridin-2-yl)piperidin-4-yl)amino)methyl)phenyl)-N-hydroxyacrylamide formate]",IC50,NCI-H526 cells,497 nM
same,IC50,pan-HDAC,38.2 nM
same,IC50,HDAC8,508 nM
same,IC50,LSD1,0.69 nM
same,IC50,NCI-H1417 cells; [2],1.88 nM
same,IC50,NCI-H69 cells; [3],245 nM
"CC(C)(O)Cn1nnc2cc(-c3cnc(N4CCC(NCc5ccc(/C=C/C(=O)NO)cc5)CC4)c(C#N)c3-c3ccc(C#N)c(F)c3)ccc21 [Example 197, (E)-3-(4-(((1-(3-Cyano-4-(4-cyano-3-fluorophenyl)-5-(1-(2-hydroxy-2-methylpropyl)-1H-benzo[d][1,2,3]triazol-5-yl)pyridin-2-yl)piperidin-4-yl)amino)methyl)phenyl)-N-hydroxyacrylamide formate]",IC50,NCI-H526 cells,193 nM
same,IC50,pan-HDAC,7.48 nM
same,IC50,HDAC8,30.1 nM
same,IC50,LSD1,0.49 nM
same,IC50,NCI-H1417 cells; [2],3.59 nM
same,IC50,NCI-H69 cells; [3],71.8 nM

# Source: US20250304549A1, “HYDROXYAMIDE DERIVATIVE AND USE THEREOF” (SICHUAN HUIYU PHARMACEUTICAL CO., LTD., priority 2022, published 2025)
